Tests used:
Type in all cases: in vivo
[1] = tested on: Alternaria solani conidia; test: Tomato Early Blight control (Example D); conditions: 288 h, tomato seedlings, Bonny Best, inoculated 1 day after spray, relative to untreated check plants, read-out: % Control TEB
Description: Compounds of the invention were tested for the control of the Tomato Early Blight organism Alternaria solani conidia. Tomato (variety Bonny Best) seedlings of 6- to 7-weeks old were used. The tomato plants were sprayed with a 250-ppm solution of the test compound in an acetone-and-water solution containing a small amount of a nonionic emulsifier. The sprayed plants were inoculated 1 day later with the organism, placed in the environmental chamber and incubated at 66° F. to 68° F. and 100% relative humidity for 24 hours. Following the incubation, the plants were maintained in a greenhouse for about 12 days. Percent disease control was based on the percent disease development on untreated check plants.

[2] = tested on: Phytophthora infestans; test: whole plant or invertebrate; conditions: in Solanum lycopersicum, 168 h, read-out: % Control TLB
[3] = tested on: Uromyces phaseoli tipica; test: Leaf Rust / Bean Rust control (Example F); conditions: 336 h, pinto bean plants, rated after about 14 days, relative to untreated check plants, read-out: % Control BR
Description: The Leaf Rust test was made using pinto beans. The pathogen was Uromyces phaseoli tipica. The pinto bean plants were sprayed with a 250-ppm solution of the test compound in an acetone-water mixture containing a nonionic emulsifier. The treated plants were inoculated thereafter with the pathogen and then incubated in an environmental chamber for approximately 20 hours at 100% relative humidity and a temperature of 68° F. to 70° F. The plants were then removed from the chamber, allowed to dry, and then maintained in a greenhouse at a 60% to 80% relative humidity. The rate of infection on the leaves was made after about 14 days. The percent disease control provided by a given test compound was based on the percent disease reduction relative to untreated check plants.

[4] = tested on: Septoria apii; test: whole plant or invertebrate; conditions: 336 h, read-out: % Control CLB
[5] = tested on: Piricularia oryzae; test: whole plant or invertebrate; conditions: Pyricularia oryzae, read-out: % Control RB
[6] = tested on: Plasmopara viticola; test: Grape Downy Mildew control (Example E); conditions: detached grape leaves, cultivar Emperor, relative to untreated check plants, read-out: % Control GDM
Description: The compounds of the invention were tested for the control of the Grape Downy Mildew organism Plasmopara viticola. Detached leaves, between 70 mm and 85 mm in diameter, 7-week-old Vitis vinifera cultivar Emperor grape seedlings were used as hosts. The leaves were sprayed with a 250-ppm solution of the test compound in acetone. The sprayed leaves were dried, inoculated with a spore suspension of the organism, placed in a humid environmental chamber and incubated at 66° F. to 68° F. and about 100% relative humidity. After incubation for 2 days, the plants were then held in a greenhouse 7 to 9 days; then the amount of disease control was determined. The percent disease control provided by a given test compound was based on the percent disease reduction relative to untreated check plants.

[7] = tested on: Erysiphe polygoni; test: Bean Powdery Mildew control (Example A); conditions: 240 h, seedling bean plants, inoculated 1 day after spray, 10 days, relative to untreated check plants, read-out: % Control BPM
Description: The compounds of the invention were tested for the control of the Bean Powdery Mildew organism Erysiphe polygoni. Seedling bean plants were sprayed with a 250-ppm solution of the test compound in acetone, water and a nonionic emusifier. The sprayed plants were then inoculated 1 day later with the organism. The plants were maintained for 10 days at temperatures of 68° F. at night with daytime temperatures of 72° F. to 80° F.; relative humidity was maintained at 40% to 60%. The percent disease control provided by a given test compound was based on the percent disease reduction relative to the untreated check plants.

Row | SMILES | pest or weed control at 250 ppm [1] | pest or weed control at 250 ppm [2] | pest or weed control at 250 ppm [3] | pest or weed control at 250 ppm [4] | pest or weed control at 625 ppm [5] | pest or weed control at 250 ppm [6] | pest or weed control at 250 ppm [7]
1 | CCCN(CCOc1c(Cl)cc(Cl)cc1Cl)C(=O)c1cccnc1 [Compound 1, N-(n-propyl), N-(3-pyridylcarbonyl)ethanolamine 2,4,6-trichlorophenylether] | 96% | 0% | 0% | 46% | 86% | 50% | 100%
2 | CCCN(CCOc1c(Cl)cc(Cl)cc1Cl)C(=O)c1cncnc1 [Compound 2, N-(n-propyl), N-(5-pyrimidylcarbonyl)ethanolamine 2,4,6-trichlorophenylether] | 98% | 0% | 0% | 93% | 38% | 3% | 100%
3 | CCCN(CCOc1c(Cl)cc(Cl)cc1Cl)C(=O)c1cnccn1 [Compound 3, N-(n-propyl), N-(2-pyrazinylcarbonyl)ethanolamine 2,4,6-trichlorophenylether] | 94% | 0% | 19% | 62% | 75% | 13% | 100%
4 | CCCN(CCOc1ccc(C(C)(C)C)cc1)C(=O)c1cnccn1 [Compound 5] | 36% | 0% | 0% | 17% | – | 28% | 94%
5 | CCCN(CCOc1ccc(C(C)(C)C)cc1)C(=O)c1cccnc1 [Compound 6] | 50% | 10% | 0% | 0% | – | 0% | 98%
6 | CCCN(CCOc1ccc(Cl)cc1Cl)C(=O)c1cnccn1 [Compound 7] | 0% | 0% | 3% | 15% | 0% | 13% | 21%
7 | CCCN(CCOc1ccc(Cl)cc1Cl)C(=O)c1cccnc1 [Compound 8] | 40% | 0% | 3% | 45% | 0% | 0% | 50%
8 | CCCN(CCOc1c(Cl)cc(Cl)cc1Cl)C(=O)c1ccccn1 [Compound 9] | 0% | 0% | 50% | 9% | 10% | 19% | 0%
9 | CCCN(CCOc1c(Cl)cc(Cl)cc1Cl)C(=O)c1ccncc1 [Compound 10] | 32% | 11% | 29% | 0% | 0% | 9% | 0%
10 | CCCN(CCSc1c(Cl)cccc1Cl)C(=O)c1cccnc1 [Compound 11, N-(n-propyl), N-(3-pyridylcarbonyl) 2-aminoethanethiol 2,6-dichlorophenylthioether] | 60% | 0% | 0% | 0% | 29% | 13% | 58%
11 | CCCN(CCOc1c(Cl)cc(Cl)cc1Cl)C(=O)c1cncn1C [Compound 12, N-(n-propyl), N-(1-methyl-5-imidazolylcarbonyl)ethanolamine 2,4,6-trichlorophenylether] | 36% | 18% | 29% | 45% | 0% | 19% | 100%
12 | CCCN(CCOc1c(Cl)cccc1Cl)C(=O)c1cncnc1 [Compound 13] | 97% | 4% | 0% | 80% | – | 10% | 81%
13 | CCCN(CCOc1c(C)cc(C)cc1C)C(=O)c1cccnc1 [Compound 14] | 67% | 0% | 0% | 85% | 64% | 0% | 100%
14 | CCCN(CCOc1c(C)cc(C)cc1C)C(=O)c1cnccn1 [Compound 15] | 67% | 0% | 0% | 15% | 29% | 0% | 44%
15 | CCCN(CCOc1c(C)cc(C)cc1C)C(=O)c1cncnc1 [Compound 16] | 83% | 0% | 0% | 38% | 36% | 7% | 50%
16 | CCCN(CCOc1c(Cl)cc(Cl)cc1Cl)C(=S)c1cccnc1 [Compound 17, N-(n-propyl), N-(3-pyridylthiocarbonyl)ethanolamine 2,4,6-trichlorophenylether] | 87% | 0% | 0% | 62% | 100% | 4% | 100%
17 | CCCN(CCOc1c(Cl)cc(Cl)cc1Cl)C(=S)c1cnccn1 [Compound 18] | – | 0% | 0% | 85% | – | 43% | 54%
18 | CCCN(CCCOc1c(Cl)cc(Cl)cc1Cl)C(=O)c1cccnc1 [Compound 19] | 0% | 10% | 0% | 38% | 96% | 30% | 70%
19 | CCCN(C(=O)c1cccnc1)C(C)COc1c(Cl)cc(Cl)cc1Cl (stereo not shown) [Compound 20, N-(n-propyl), N-(3-pyridylcarbonyl)propanol-2-amine 2,4,6-trichlorophenylether] | – | 0% | 23% | 0% | 0% | 7% | 93%
20 | CCCN(C(=O)c1cnccn1)C(C)COc1c(Cl)cc(Cl)cc1Cl (stereo not shown) [Compound 21, N-(n-propyl), N-(2-pyrazinylcarbonyl)propanol-2-amine 2,4,6-trichlorophenylether] | – | 0% | 23% | 0% | 0% | 67% | 71%
21 | CCCN(Cc1c(Cl)cccc1Cl)C(=O)c1cccnc1 [Compound 29] | 50% | 0% | 0% | 0% | – | 27% | 48%
